Source: patent US6346535B1, “Fungicidal mixtures” (American Cyanamid Company, priority 1999, dated 2002)
Where two headings read alike, the source gives them in different places.

Experiments:
Format in all cases: in vivo
[1] = test system: Blumeria graminis f. sp. tritici on wheat; assay: Greenhouse trial, 2 day curative, Blumeria graminis f. sp. tritici on wheat; details: Table XVII, compound alone
Experimental: (§1) The trials are carried out under greenhouse (Examples 1 to 18) or field conditions (Example 19) in residual or curative applications. The fungicides are applied in single treatments, or in a combination comprising a benzophenone of formula I and a compound selected from (A) through (E) as defined above. The compounds are applied in form of an aqueous spray mix obtained from a concentrated formulation or the technical material.
(§2) 1. Seed is planted in 6 cm diameter plastic pots and maintained in the greenhouse.
(§3) 2. When the primary leaf is fully expanded (in the case of cereals) or several leaves are present (in the case of dicots), formulated test compounds are sprayed with a three nozzle overhead fungicide sprayer to near run-off. Alternatively, a single nozzle overhead track sprayer is used for application of the compounds to cereals at a rate of 200 liters/ha (l/ha). Plants are then allowed to air-dry.
(§4) 3. Inoculation precedes treatment in the case of curative evaluations and follows treatment in case of residual evaluations. For inoculation of powdery mildew disease, plants are set up on greenhouse benches with bottom watering mats and inoculated by dusting them with conidia from infected plants. Between inoculation and treatment for curative evaluations and between treatment and inoculation for residual evaluations, plants are maintained in the greenhouse with bottom watering. For inoculation of non-powdery mildew diseases, an aqueous spore suspension of the pathogen is applied to the plant and the plants are kept 1-2 days in a moist infection chamber before being returned to the greenhouse where they are maintained by bottom watering.
(§5) 4. Disease on the foliage as percent leaf area with disease symptoms/signs is evaluated about 7 days after inoculation. In the case of wheat, the tips and bases of the leaves are excluded from the evaluation. [formula]
(§6) 1. Technical compounds are formulated in a solvent/surfactant system consisting of 5% acetone and 0.05% Tween 20 in deionized water. Compounds are dissolved in acetone prior to addition of the water; the Tween 20 can be added through either the acetone or the water. Dilutions are made using the solvent/surfactant system. Formulated compounds are prepared using deionized water.
(§7) Assessments of the diseases took place at the indicated day after the application of the compounds. Per cent infected leaf area infected was evaluated. The efficacy of the compounds/compounds mixtures to control the diseases was calculated by using the formula given above under item 4: […]
(§8) Synergy of a fungicide mixture was determined by comparing the actual (observed) fungicidal activity of the mixture to the expected fungicidal activity of the mixture as calculated using the COLBY formula given hereinabove.
Fungicidal Efficacy of the Mixture of Different Benzophenones+Metconazole (2 Day Curative) Against Blumeria graminis f. sp. tritici on Wheat
The tank mixes were obtained from technical material of the benzophenones BP-2 and BP-4 and metconazole.

[2] = test system: Uncinula necator on vines; assay: Greenhouse trial, 1 day residual, Uncinula necator on vines; details: Table XVIII, compound alone
Experimental: as §1, §2, §3, §4, §5, §6, §7, §8
Fungicidal Efficacy of the Mixture of BP-4+AP-4 (1 Day Residual) Against Uncinula necator on Vines
The tank mixes were obtained from technical material of BP-4 and AP-4. The active ingredients, the type of formulations, the observed and expected efficacies with different rates are given in Table XVIII: […]

[3] = test system: Pyrenophora teres on barley; assay: Greenhouse trial, 4 day residual, Pyrenophora teres on barley; details: Pyrenophora teres, 96 h, 4 day residual, read-out: Observed Efficacy; for pest or weed control at 0.4 ppm: dose rate 0.4 ppm; for pest or weed control at 2 ppm: dose rate 2 ppm; for pest or weed control at 10 ppm: dose rate 10 ppm; for pest or weed control at 50 ppm: dose rate 50 ppm
[4] = test system: Leptosphaeria nodorum on wheat; assay: Greenhouse trial, 4 day residual, Leptosphaeria nodorum on wheat; details: Parastagonospora nodorum, 96 h, compound alone, read-out: Observed Efficacy; for pest or weed control at 4 ppm: dose rate 4 ppm; for pest or weed control at 16 ppm: dose rate 16 ppm; for pest or weed control at 64 ppm: dose rate 64 ppm; for pest or weed control at 256 ppm: dose rate 256 ppm
Method in brief: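 Wheat at full primary-leaf expansion sprayed with aqueous formulated compounds or mixtures (technical material in 5% acetone/0.05% Tween 20) to near run-off or at 200 l/ha, inoculated 4 days later with spore suspension and held 1-2 days in a moist chamber. Percent diseased leaf area scored about 7 days post-inoculation, excluding leaf tips and bases; synergy judged by Colby formula.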

[5] = test system: Erysiphe cichoracearum on cucumbers; assay: Greenhouse trial, 4 day residual, Erysiphe cichoracearum on cucumbers; details: Golovinomyces cichoracearum, 96 h, read-out: Observed Efficacy; for pest or weed control at 0.4 ppm: dose rate 0.4 ppm; for pest or weed control at 2 ppm: dose rate 2 ppm; for pest or weed control at 10 ppm: dose rate 10 ppm; for pest or weed control at 50 ppm: dose rate 50 ppm
Method in brief: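 Cucumber plants were sprayed to near run-off with compounds or mixtures (5% acetone/0.05% Tween 20 aqueous). Four days later they were inoculated by dusting with Erysiphe cichoracearum conidia. Percent diseased leaf area was assessed about 7 days after inoculation, and efficacy and Colby synergy were calculated from it.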

[6] = test system: Puccinia recondita on wheat; assay: Greenhouse trial, 4 day residual, Puccinia recondita on wheat; details: Puccinia recondita, 96 h, read-out: Observed Efficacy; for pest or weed control at 4 ppm: dose rate 4 ppm; for pest or weed control at 16 ppm: dose rate 16 ppm; for pest or weed control at 64 ppm: dose rate 64 ppm; for pest or weed control at 256 ppm: dose rate 256 ppm; for pest or weed control at 0.4 ppm: dose rate 0.4 ppm; for pest or weed control at 2 ppm: dose rate 2 ppm; for pest or weed control at 10 ppm: dose rate 10 ppm; for pest or weed control at 50 ppm: dose rate 50 ppm
Method in brief: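 Wheat plants sprayed at primary-leaf stage with compounds, alone or in mixtures, in 5% acetone/0.05% Tween 20 water, then inoculated 4 days later with Puccinia recondita spore suspension and held 1-2 days in a moist chamber. Percent diseased leaf area scored about 7 days post-inoculation, excluding leaf tips and bases; efficacy calculated, synergy by Colby.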

[7] = Table XIV (Example 14), 4 day residual
[8] = Table XV (Example 15), 4 day residual

Compound: COc1cc(C)c(C(=O)c2c(OC)ccc(Br)c2C)c(OC)c1OC [BP-4, 5-bromo-2′,6-dimethyl-2,4′,5′,6′-tetramethoxybenzophenone]
- Observed Efficacy ([1]; dose rate 0.67 ppm): 9%
- Observed Efficacy ([1]; dose rate 2 ppm): 27%
- Observed Efficacy ([1]; dose rate 6 ppm): 42%
- Observed Efficacy ([1]; dose rate 18 ppm): 78%
- Observed Efficacy ([1]; dose rate 54 ppm): 92%
- Observed Efficacy ([2]; dose rate 0.25 ppm): 0%
- Observed Efficacy ([2]; dose rate 0.5 ppm): 21%
- Observed Efficacy ([2]; dose rate 1 ppm): 28%
- Observed Efficacy ([2]; dose rate 2 ppm): 9%
- Observed Efficacy ([2]; dose rate 4 ppm): 43%
- Observed Efficacy ([2]; dose rate 8 ppm): 42%
- pest or weed control at 0.4 ppm ([3]; Table XIII (Example 13)): 0%
- pest or weed control at 2 ppm ([3]; Table XIII (Example 13)): 0%
- pest or weed control at 10 ppm ([3]; Table XIII (Example 13)): 34%
- pest or weed control at 50 ppm ([3]; Table XIII (Example 13)): 58%
- pest or weed control at 0.4 ppm ([3]; Table XVI (Example 16)): 0%
- pest or weed control at 2 ppm ([3]; Table XVI (Example 16)): 0%
- pest or weed control at 10 ppm ([3]; Table XVI (Example 16)): 0%
- pest or weed control at 50 ppm ([3]; Table XVI (Example 16)): 11%
- pest or weed control at 4 ppm ([4]; Table VIII): 0%
- pest or weed control at 16 ppm ([4]; Table VIII): 0%
- pest or weed control at 64 ppm ([4]; Table VIII): 14%
- pest or weed control at 256 ppm ([4]; Table VIII): 34%
- pest or weed control at 4 ppm ([4]; Table X): 0%
- pest or weed control at 16 ppm ([4]; Table X): 10%
- pest or weed control at 64 ppm ([4]; Table X): 18%
- pest or weed control at 256 ppm ([4]; Table X): 44%
- pest or weed control at 1 ppm ([5]; Table VI, compound alone, dose rate 1 ppm): 1%
- pest or weed control at 4 ppm ([5]; Table VI, compound alone, dose rate 4 ppm): 6%
- pest or weed control at 16 ppm ([5]; Table VI, compound alone, dose rate 16 ppm): 51%
- pest or weed control at 64 ppm ([5]; Table VI, compound alone, dose rate 64 ppm): 100%
- pest or weed control at 0.4 ppm ([5]; Table XI, compound alone): 0%
- pest or weed control at 2 ppm ([5]; Table XI, compound alone): 2%
- pest or weed control at 10 ppm ([5]; Table XI, compound alone): 55%
- pest or weed control at 50 ppm ([5]; Table XI, compound alone): 96%
- pest or weed control at 0.4 ppm [5, 7]: 0%
- pest or weed control at 2 ppm [5, 7]: 0%
- pest or weed control at 10 ppm [5, 7]: 13%
- pest or weed control at 50 ppm [5, 7]: 97%
- pest or weed control at 4 ppm ([6]; Table IX, compound alone): 6%
- pest or weed control at 16 ppm ([6]; Table IX, compound alone): 4%
- pest or weed control at 64 ppm ([6]; Table IX, compound alone): 16%
- pest or weed control at 256 ppm ([6]; Table IX, compound alone): 38%
- pest or weed control at 4 ppm ([6]; Table VII, compound alone): 0%
- pest or weed control at 16 ppm ([6]; Table VII, compound alone): 0%
- pest or weed control at 64 ppm ([6]; Table VII, compound alone): 0%
- pest or weed control at 256 ppm ([6]; Table VII, compound alone): 13%
- pest or weed control at 0.4 ppm ([6]; Table XII, compound alone): 2%
- pest or weed control at 2 ppm ([6]; Table XII, compound alone): 7%
- pest or weed control at 10 ppm ([6]; Table XII, compound alone): 10%
- pest or weed control at 50 ppm ([6]; Table XII, compound alone): 31%
- pest or weed control at 0.4 ppm [6, 8]: 0%
- pest or weed control at 2 ppm [6, 8]: 0%
- pest or weed control at 10 ppm [6, 8]: 6%
- pest or weed control at 50 ppm [6, 8]: 12%
